Tests used:
lymphocytes = assay: aberrant enzyme activities in febrile children, lymphocytes (Table 7); type: cell-based, human
[1] = tested on: metabolically active whole cell; assay: substrate panel in normals and HIV + patients, TB infection (Table 4); type: cell-based, human; set-up: unit not given here
Experimental: A panel of assay compounds are assembled consisting of Ala-aminopeptidase and Lys-aminopeptidase, Dipeptidyl peptidase IV (Ala-Ala)2 rhodamine 110 and Cathepsin D to indicate possible TB infection in AIDS related cases.
A panel Of enzymatic substrates is performed consisting of Ala-aminopeptidase and Lys-aminopeptidase, Dipeptidyl peptidase IV (Ala-Ala)2 rhodamine 110 and Cathepsin D to indicate possible TB infection in AIDS related cases.

monocytes = assay: aberrant enzyme activities in febrile children, monocytes (Table 7); type: cell-based, human
granulocytes = assay: aberrant enzyme activities in febrile children, granulocytes (Table 7); type: cell-based, human
[2] = tested on: acute lympholytic Ficoll prepared lymphocytes; assay: amino peptidase activity in acute lymphocytic leukemia lymphocytes; type: cell-based, human; details: FIG. 4B
Description: The cell's ability to fight off an invader lies within its genetics and therefore cell type. The "readiness" however of any genetically capable group of cells to defend is different. A measure of this "readiness" is manifest in the available proteolytic enzymes contained within vacuoles or on the surface of the cell. The assay compound hydrolysis rate increases with increased mass of enzymes giving a picture of immune competence both in number of cells and activity level. […] Images were generated using Universal Imaging.

aminopeptidase [3] = details: cited from earlier work
aminopeptidase [4] = assay: inhibition of aminopeptidase reaction with (H-L-Asp)2 rhodamine 110; type: biochemical; details: approximately 10 mM; substrate (H-L-Asp)2 rhodamine 110
Description: The chemical nature of the buffer is important to the reactivity Of the assay compound with the cellular enzymes. […] In addition, the assay compound hydrolysis by the enzyme occurs at an increased rate of reaction.

[5] = tested on: metabolically active cell; details: even when buffered
Experimental: Viability is confirmed with Trypan Blue or PI-FDA over a time period of 10 seconds to 30 minutes. If the viability of the cell sample at between one and three million cells/mL decreases by 10% then the salt of the compound is rejected and another salt of the assay compound is synthesized.

cathepsin B = details: cited from earlier work
dipeptide reagent = assay: effect of sodium chloride on dipeptide reagent; type: biochemical; details: 7 mM, pH 6.5 to 8.7
Description: Inhibitors and poisons (or toxins) are components that can be added to reduce the activity of non-targeted enzymes that provide competing reactions for the leaving group. Inhibitors are usually very selective for a particular enzyme. For example, EDTA only works with enzymes requiring Ca^+2, Mg^+2 and some other metals. […] Preferred inhibitors for particular enzymes are included in Table 1.

CC(C)C[C@H](N)C(=O)Nc1ccc2c(c1)Oc1cc(NC(=O)[C@@H](N)CC(C)C)ccc1C21OC(=O)c2ccccc21 [LEU, (Leu)2 Rho 110]
.smallcircle.: aberrant enzyme activity, LYMPHS (lymphocytes; P97 Pyelonephritis) | aberrant enzyme activity, LYMPHS (lymphocytes; P99 Viral Syndrome) | aberrant enzyme activity, LYMPHS (lymphocytes; P102 UTI) | aberrant enzyme activity, MONOS (monocytes; P99 Viral Syndrome) | aberrant enzyme activity, MONOS (monocytes; P102 UTI) | aberrant enzyme activity, GRANS (granulocytes; P97 Pyelonephritis) | aberrant enzyme activity, GRANS (granulocytes; P99 Viral Syndrome) | aberrant enzyme activity, GRANS (granulocytes; P102 UTI)
+ (>0.25 Increase over normal range): aberrant enzyme activity, LYMPHS (lymphocytes; P88 Enteritis) | aberrant enzyme activity, LYMPHS (lymphocytes; P89 Viral Stomatitis) | aberrant enzyme activity, LYMPHS (lymphocytes; P92 Adenitis) | aberrant enzyme activity, LYMPHS (lymphocytes; P95 Viral Syndrome) | aberrant enzyme activity, LYMPHS (lymphocytes; P96 Viral Syndrome) | aberrant enzyme activity, LYMPHS (lymphocytes; P101 Fever -- Unknown Origin) | aberrant enzyme activity, LYMPHS (lymphocytes; P103 Viral Syndrome) | aberrant enzyme activity, MONOS (monocytes; P88 Enteritis) | aberrant enzyme activity, MONOS (monocytes; P89 Viral Stomatitis) | aberrant enzyme activity, MONOS (monocytes; P92 Adenitis) | aberrant enzyme activity, MONOS (monocytes; P95 Viral Syndrome) | aberrant enzyme activity, MONOS (monocytes; P96 Viral Syndrome) | aberrant enzyme activity, MONOS (monocytes; P97 Pyelonephritis) | aberrant enzyme activity, MONOS (monocytes; P101 Fever -- Unknown Origin) | aberrant enzyme activity, MONOS (monocytes; P103 Viral Syndrome) | aberrant enzyme activity, GRANS (granulocytes; P88 Enteritis) | aberrant enzyme activity, GRANS (granulocytes; P89 Viral Stomatitis) | aberrant enzyme activity, GRANS (granulocytes; P92 Adenitis) | aberrant enzyme activity, GRANS (granulocytes; P95 Viral Syndrome) | aberrant enzyme activity, GRANS (granulocytes; P96 Viral Syndrome) | aberrant enzyme activity, GRANS (granulocytes; P101 Fever -- Unknown Origin) | aberrant enzyme activity, GRANS (granulocytes; P103 Viral Syndrome)
lost their enzymatic activity: amino peptidase activity [2]
259.6: MEAN DELTA FL ([1]; NORMALS)
130.5: MEAN DELTA FL ([1]; HIV + PATIENTS)

CC(C)C[C@H](NC(=O)[C@@H](O)[C@H](N)Cc1ccccc1)C(=O)O [bestatin]
selectively inhibits aminopeptidase: inhibition of aminopeptidase (aminopeptidase [3])

[Ca+2].[Cl-].[Cl-] [calcium chloride]
inhibitory: inhibitory to the enzyme reaction (aminopeptidase [4])

Br.Cc1ncc(C)n2nc(CCc3nc(-c4ccccc4)cn3C)nc12 [hydrogen bromide (HBr), hydrogen bromide]
kills cells: cell killing [5]

CC(=O)N[C@@H](CC(C)C)C(=O)N[C@@H](CC(C)C)C(=O)N[C@H](C=O)CCCNC(=N)N [leupeptin]
selectively inhibits cathepsin B: inhibition of cathepsin B (cathepsin B)

[Cl-].[Na+] [sodium chloride]
slightly inhibitory effect: inhibitory effect on dipeptide reagent (dipeptide reagent)

— US5698411A, “Method for determining activity of enzymes in metabolically active whole cells” (priority 1995, dated 1997)
